Measurements taken from patent publication US7998973B2 (AVEO Pharmaceuticals, Inc., priority 2009, dated 2011).
Like-named read-outs stand apart in the source and are kept apart here.

Experiments:
[1] = cited from earlier work
[2] = pharmacokinetics in the human body; format: in vivo; conditions: for accumulation: human
From the text: Serum levels reach steady state after about 2-3 weeks.
Therefore, […] is expected to exert physiological effects after temsirolimus has been cleared.

VEGF receptor 3 = VEGF receptor 3 (Homo sapiens, UniProt P35916); conditions: cited from earlier work
[3] = cited from earlier work; remark: listed apart in the source
[4] = preclinical models; cited from earlier work

Sequence of VEGF receptor 3 (P35916 25-1363): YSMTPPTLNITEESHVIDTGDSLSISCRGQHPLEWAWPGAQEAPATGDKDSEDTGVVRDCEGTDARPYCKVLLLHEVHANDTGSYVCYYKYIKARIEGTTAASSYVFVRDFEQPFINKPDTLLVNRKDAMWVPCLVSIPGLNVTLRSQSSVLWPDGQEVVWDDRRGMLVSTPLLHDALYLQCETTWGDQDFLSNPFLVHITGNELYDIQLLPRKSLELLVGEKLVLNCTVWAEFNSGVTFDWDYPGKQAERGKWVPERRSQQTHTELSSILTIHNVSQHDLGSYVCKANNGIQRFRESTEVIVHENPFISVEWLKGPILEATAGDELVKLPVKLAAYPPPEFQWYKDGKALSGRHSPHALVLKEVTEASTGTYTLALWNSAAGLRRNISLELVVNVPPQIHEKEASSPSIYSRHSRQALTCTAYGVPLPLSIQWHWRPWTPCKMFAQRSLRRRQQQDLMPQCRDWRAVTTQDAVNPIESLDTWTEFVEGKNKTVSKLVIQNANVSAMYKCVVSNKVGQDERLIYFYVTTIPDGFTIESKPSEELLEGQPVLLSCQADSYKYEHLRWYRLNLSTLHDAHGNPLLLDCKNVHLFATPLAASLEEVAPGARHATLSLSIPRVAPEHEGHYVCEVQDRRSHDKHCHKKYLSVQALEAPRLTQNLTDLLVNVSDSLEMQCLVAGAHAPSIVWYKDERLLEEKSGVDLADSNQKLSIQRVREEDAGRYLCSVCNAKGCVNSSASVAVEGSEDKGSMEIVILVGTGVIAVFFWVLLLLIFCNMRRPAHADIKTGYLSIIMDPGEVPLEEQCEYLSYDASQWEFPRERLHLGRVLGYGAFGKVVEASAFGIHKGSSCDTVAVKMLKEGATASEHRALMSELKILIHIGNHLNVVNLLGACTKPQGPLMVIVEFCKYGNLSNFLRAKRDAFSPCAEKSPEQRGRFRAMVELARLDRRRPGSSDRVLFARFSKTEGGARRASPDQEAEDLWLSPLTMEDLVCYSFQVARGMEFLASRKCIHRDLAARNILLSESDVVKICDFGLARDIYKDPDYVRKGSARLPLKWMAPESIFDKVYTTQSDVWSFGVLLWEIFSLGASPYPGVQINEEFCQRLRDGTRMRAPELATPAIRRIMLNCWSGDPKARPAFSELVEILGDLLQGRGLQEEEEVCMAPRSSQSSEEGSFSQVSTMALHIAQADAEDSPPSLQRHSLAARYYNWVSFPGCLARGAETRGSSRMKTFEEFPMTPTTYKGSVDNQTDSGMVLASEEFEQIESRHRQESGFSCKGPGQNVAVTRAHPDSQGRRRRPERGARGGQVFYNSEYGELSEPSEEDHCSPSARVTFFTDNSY

SMILES	half-life relative to parent compound temsirolimus ([1]; primary metabolite of temsirolimus)	half-life ([1]; human body)	accumulation [2]	inhibitory activity (VEGF receptor 3)	interim results ([3]; 272-patient Phase 2 clinical trial)	most common side effects ([3]; Phase 1 and Phase 2 clinical trials)	dose at which safety had been established ([3]; previous trials, 4 weeks on, 2 weeks off or 3 weeks on, 1 week off) [mg/day]	antitumor activity [4]	time for serum levels to reach steady state ([2]; chronic dosing)	half-life ([2]; serum, human body) [h]
CO[C@H]1C[C@@H]2CC[C@@H](C)[C@@](O)(O2)C(=O)C(=O)N2CCCC[C@H]2C(=O)O[C@H]([C@H](C)C[C@@H]2CC[C@@H](O)[C@H](OC)C2)CC(=O)[C@H](C)/C=C(\C)[C@@H](O)[C@@H](OC)C(=O)[C@H](C)C[C@H](C)/C=C/C=C/C=C/1C [sirolimus]	about three times that of the parent compound									
CO[C@H]1C[C@@H]2CC[C@@H](C)[C@@](O)(O2)C(=O)C(=O)N2CCCC[C@H]2C(=O)O[C@H]([C@H](C)C[C@@H]2CC[C@@H](OC(=O)C(C)(CO)CO)[C@H](OC)C2)CC(=O)[C@H](C)/C=C(\C)[C@@H](O)[C@@H](OC)C(=O)[C@H](C)C[C@H](C)/C=C/C=C/C=C/1C [temsirolimus, 42-(3-hydroxy-2-(hydroxymethyl)-2-methylpropanoate) rapamycin]		approximately 17 hours	does not appear to accumulate more than would be expected based on its half life							
COc1cc2nccc(Oc3ccc(NC(=O)Nc4cc(C)on4)c(Cl)c3)c2cc1OC [tivozanib, N-{2-chloro-4-[(6,7-dimethoxy-4-quinolyl)oxy]-phenyl}-N′-(5-methyl-3-isoxazolyl)urea]			accumulates in the serum after chronic dosing to a degree that would be expected based on its half-life	picomolar inhibitory activity	positive interim results	hypertension and dysphonia	1.5	exhibits antitumor activity	2-3 weeks	91.2 to 113
